# Laboratory results reported in publication PMC12155096 (International Journal of Molecular Sciences, 2025).
# Read-outs that look alike come from different tables or passages of the source.
# Key:
# [1] = target: Photinus pyralis (firefly) luciferase (Photinus pyralis, UniProt P08659); assay: biochemical; assay type: biochemical
# [2] = target: T1, human CYP1A2 (Homo sapiens, UniProt P05177); settings: human
# T1 sequence (P05177 1-516): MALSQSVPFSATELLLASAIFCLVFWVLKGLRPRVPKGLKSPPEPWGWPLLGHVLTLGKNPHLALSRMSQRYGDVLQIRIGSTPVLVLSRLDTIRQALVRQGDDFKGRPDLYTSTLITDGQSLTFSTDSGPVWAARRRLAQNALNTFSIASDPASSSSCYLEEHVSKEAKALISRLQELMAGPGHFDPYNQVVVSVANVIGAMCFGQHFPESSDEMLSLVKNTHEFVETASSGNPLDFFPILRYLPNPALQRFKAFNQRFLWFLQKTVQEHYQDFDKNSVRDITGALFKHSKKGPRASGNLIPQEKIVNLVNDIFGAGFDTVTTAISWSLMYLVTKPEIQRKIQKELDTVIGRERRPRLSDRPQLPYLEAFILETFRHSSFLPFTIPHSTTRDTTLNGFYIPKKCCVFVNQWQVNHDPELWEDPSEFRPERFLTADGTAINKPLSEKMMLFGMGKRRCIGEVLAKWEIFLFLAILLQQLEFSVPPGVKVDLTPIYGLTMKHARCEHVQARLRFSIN
# [3] = target: T2, human CYP2C9 (Homo sapiens, UniProt P11712); settings: human
# [4] = target: T3, human CYP2C19 (Homo sapiens, UniProt P33261); settings: human
# [5] = target: T4, human CYP2D6 (Homo sapiens, UniProt P10635); settings: human
# [6] = target: T5, CYP3A4 (Homo sapiens, UniProt P08684)
# [7] = target: T1, human CYP1A2; assay: biochemical; settings: CYP1A2 IC50 (half-maximal inhibitory concentration)
# [8] = target: T2, human CYP2C9; assay: biochemical
# [9] = target: T3, human CYP2C19; assay: biochemical; settings: CYP2C19 IC50 (half-maximal inhibitory concentration)
# [10] = target: T4, human CYP2D6; assay: biochemical
# [11] = target: T5, CYP3A4; assay: biochemical; settings: CYP3A4 IC50 (half-maximal inhibitory concentration)
# [12] = CYP2C9 IC50 (half-maximal inhibitory concentration)
# [13] = CYP2D6 IC50 (half-maximal inhibitory concentration)
# T3 sequence (P33261 whole entry): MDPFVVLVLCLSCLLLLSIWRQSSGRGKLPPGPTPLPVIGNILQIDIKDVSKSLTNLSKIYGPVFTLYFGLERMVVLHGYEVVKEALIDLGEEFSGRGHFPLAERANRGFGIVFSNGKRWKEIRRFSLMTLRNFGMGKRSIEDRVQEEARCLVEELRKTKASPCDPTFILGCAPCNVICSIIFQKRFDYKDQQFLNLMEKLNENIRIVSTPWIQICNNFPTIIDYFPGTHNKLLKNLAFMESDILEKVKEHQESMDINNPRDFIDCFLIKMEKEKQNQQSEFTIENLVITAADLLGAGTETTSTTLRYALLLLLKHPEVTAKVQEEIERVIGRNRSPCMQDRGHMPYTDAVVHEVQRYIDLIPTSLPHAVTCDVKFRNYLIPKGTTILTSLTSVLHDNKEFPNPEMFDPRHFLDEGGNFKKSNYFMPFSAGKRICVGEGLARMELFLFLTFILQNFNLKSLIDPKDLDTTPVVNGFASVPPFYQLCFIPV
# T5 sequence (P08684 whole entry): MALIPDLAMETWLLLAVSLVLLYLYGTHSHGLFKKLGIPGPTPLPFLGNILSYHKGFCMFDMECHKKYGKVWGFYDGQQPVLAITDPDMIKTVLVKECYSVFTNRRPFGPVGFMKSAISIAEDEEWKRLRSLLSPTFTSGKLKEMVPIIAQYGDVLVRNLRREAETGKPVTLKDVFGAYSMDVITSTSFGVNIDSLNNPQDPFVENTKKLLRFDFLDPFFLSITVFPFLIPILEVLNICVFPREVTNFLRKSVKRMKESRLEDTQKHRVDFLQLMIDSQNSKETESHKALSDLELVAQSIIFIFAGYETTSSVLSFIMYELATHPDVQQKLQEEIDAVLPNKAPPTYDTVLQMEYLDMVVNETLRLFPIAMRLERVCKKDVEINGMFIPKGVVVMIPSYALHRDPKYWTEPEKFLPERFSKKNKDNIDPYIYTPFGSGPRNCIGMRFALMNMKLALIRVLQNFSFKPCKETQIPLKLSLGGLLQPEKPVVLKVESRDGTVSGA
# Chain of Photinus pyralis (firefly) luciferase (P08659 whole entry): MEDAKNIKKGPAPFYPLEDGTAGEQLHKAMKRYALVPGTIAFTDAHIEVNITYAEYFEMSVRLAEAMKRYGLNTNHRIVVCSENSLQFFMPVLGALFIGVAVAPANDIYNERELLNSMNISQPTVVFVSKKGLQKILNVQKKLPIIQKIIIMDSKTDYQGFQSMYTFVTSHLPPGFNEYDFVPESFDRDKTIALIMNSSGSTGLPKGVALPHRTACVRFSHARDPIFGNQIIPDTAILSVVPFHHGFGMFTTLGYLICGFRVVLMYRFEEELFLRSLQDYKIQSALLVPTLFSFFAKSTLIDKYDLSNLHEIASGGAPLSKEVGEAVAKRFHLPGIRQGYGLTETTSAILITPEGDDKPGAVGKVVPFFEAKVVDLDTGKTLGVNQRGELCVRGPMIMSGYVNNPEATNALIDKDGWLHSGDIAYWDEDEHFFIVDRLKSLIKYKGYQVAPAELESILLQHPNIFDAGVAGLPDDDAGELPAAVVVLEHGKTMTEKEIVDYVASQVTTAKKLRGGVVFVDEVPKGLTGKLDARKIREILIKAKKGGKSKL
# T2 sequence (P11712 whole entry): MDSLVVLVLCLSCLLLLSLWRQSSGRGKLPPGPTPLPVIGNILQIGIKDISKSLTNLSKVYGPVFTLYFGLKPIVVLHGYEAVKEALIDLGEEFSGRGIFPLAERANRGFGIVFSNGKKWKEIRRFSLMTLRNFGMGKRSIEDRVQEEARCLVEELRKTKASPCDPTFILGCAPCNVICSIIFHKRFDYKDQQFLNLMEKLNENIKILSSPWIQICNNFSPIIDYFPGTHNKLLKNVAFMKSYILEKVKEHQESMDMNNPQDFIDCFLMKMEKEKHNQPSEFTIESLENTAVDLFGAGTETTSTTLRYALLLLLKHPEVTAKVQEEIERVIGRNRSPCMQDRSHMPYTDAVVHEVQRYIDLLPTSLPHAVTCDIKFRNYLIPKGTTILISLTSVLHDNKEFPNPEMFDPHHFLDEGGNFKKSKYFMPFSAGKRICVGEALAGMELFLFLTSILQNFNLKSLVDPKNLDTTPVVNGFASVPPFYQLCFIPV
# T4 sequence (P10635 whole entry): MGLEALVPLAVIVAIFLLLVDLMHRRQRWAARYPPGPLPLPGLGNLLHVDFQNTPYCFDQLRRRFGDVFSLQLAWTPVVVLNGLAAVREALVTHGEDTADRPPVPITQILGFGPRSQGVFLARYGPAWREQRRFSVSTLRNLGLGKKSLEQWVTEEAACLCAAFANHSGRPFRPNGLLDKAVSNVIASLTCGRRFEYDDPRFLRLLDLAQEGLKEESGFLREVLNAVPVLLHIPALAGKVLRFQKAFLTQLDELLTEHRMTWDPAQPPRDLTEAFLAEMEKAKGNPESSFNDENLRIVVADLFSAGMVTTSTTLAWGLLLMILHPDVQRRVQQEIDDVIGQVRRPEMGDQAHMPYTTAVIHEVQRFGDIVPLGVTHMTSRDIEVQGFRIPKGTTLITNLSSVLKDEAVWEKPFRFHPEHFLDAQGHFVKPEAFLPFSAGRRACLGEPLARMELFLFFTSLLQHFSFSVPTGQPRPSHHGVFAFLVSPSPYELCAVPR
compound,measurement,setting,value
Clc1ccc(C2(Cn3cncn3)OCCO2)c(Cl)c1 [Azaconazole],Luciferase IC50 (half-maximal inhibitory concentration),[1],Inactive
same,CYP1A2 Efficacy (in parenthesis),[2],33.14 ± 4.22 (-89 ± 9) %
same,CYP2C9 Efficacy (in parenthesis),[3],15.38 ± 2.12 (-103 ± 8) %
same,CYP2C19 Efficacy (in parenthesis),[4],2.14 ± 0.96 (-148 ± 8) %
same,CYP2D6 Efficacy (in parenthesis),[5],65.83 ± 4.46 (-77 ± 14) %
same,CYP3A4 Efficacy (in parenthesis),[6],0.48 ± 0.03 (-62 ± 7) %
same,IC50,[7],33.1 µM
same,IC50,[8]; [12],15.4 µM
same,IC50,[9],2.14 µM
same,IC50,[10]; [13],65.8 µM
same,IC50,[11],0.48 µM
CCOP(=S)(OCC)SCn1nnc2ccccc2c1=O [Azinphos-ethyl],Luciferase IC50 (half-maximal inhibitory concentration),[1],Inactive
same,CYP1A2 Efficacy (in parenthesis),[2],28.65 ± 6 (-88 ± 5) %
same,CYP2C9 Efficacy (in parenthesis),[3],0.57 ± 0.11 (-97 ± 0) %
same,CYP2C19 Efficacy (in parenthesis),[4],0.32 ± 0.06 (-141 ± 5) %
same,CYP2D6 Efficacy (in parenthesis),[5],35.57 ± 0 (-87 ± 6) %
same,CYP3A4 Efficacy (in parenthesis),[6],1.87 ± 0.34 (-77 ± 3) %
same,IC50,[7],28.6 µM
same,IC50,[8],0.57 µM
same,IC50,[9],0.32 µM
same,IC50,[10],35.6 µM
same,IC50,[11],1.87 µM
CCNP(=S)(OC)O/C(C)=C/C(=O)OC(C)C (stereo not drawn) [Propetamphos],Luciferase IC50 (half-maximal inhibitory concentration),[1],Inactive
same,CYP1A2 Efficacy (in parenthesis),[2],2.25 ± 0.26 (-99 ± 4) %
same,CYP2C9 Efficacy (in parenthesis),[3],0.57 ± 0.11 (-102 ± 4) %
same,CYP2C19 Efficacy (in parenthesis),[4],0.08 ± 0.01 (-138 ± 6) %
same,CYP2D6 Efficacy (in parenthesis),[5],28.38 ± 3.26 (-120 ± 4) %
same,CYP3A4 Efficacy (in parenthesis),[6],1.05 ± 0.36 (-88 ± 2) %
same,IC50,[7],2.25 µM
same,IC50,[8],0.57 µM
same,IC50,[9],0.08 µM
same,IC50,[10],28.4 µM
same,IC50,[11],1.05 µM
COc1c2ccoc2cc2oc(=O)ccc12 [5-Methoxypsoralen],Luciferase IC50 (half-maximal inhibitory concentration),[1],Inactive
same,CYP1A2 Efficacy (in parenthesis),[2],0.28 ± 0.03 (-96 ± 3) %
same,CYP2C9 Efficacy (in parenthesis),[3],2.43 ± 0.16 (-105 ± 2) %
same,CYP2C19 Efficacy (in parenthesis),[4],10.35 ± 3.33 (-151 ± 18) %
same,CYP2D6 Efficacy (in parenthesis),[5],0.1 ± 0.02 (11 ± 2) %
same,CYP3A4 Efficacy (in parenthesis),[6],9.16 ± 1.5 (-71 ± 2) %
same,IC50,[7],0.28 µM
same,IC50,[8]; [12],2.43 µM
same,IC50,[9],10.3 µM
same,IC50,[10]; [13],0.1 µM
same,IC50,[11],9.16 µM
COP(=S)(OC)Oc1ccc(S(=O)(=O)N(C)C)cc1 [Famphur],Luciferase IC50 (half-maximal inhibitory concentration),[1],Inactive
same,CYP1A2 Efficacy (in parenthesis),[2],35.73 ± 4.11 (-67 ± 14) %
same,CYP2C9 Efficacy (in parenthesis),[3],0.4 ± 0.05 (-109 ± 5) %
same,CYP2C19 Efficacy (in parenthesis),[4],0.09 ± 0.01 (-137 ± 1) %
same,CYP2D6 Efficacy (in parenthesis),[5],35.57 ± 0 (-59 ± 2) %
same,CYP3A4 Efficacy (in parenthesis),[6],9.06 ± 1.9 (-86 ± 7) %
same,IC50,[7],35.7 µM
same,IC50,[8],0.4 µM
same,IC50,[9],0.09 µM
same,IC50,[10],35.6 µM
same,IC50,[11],9.06 µM
C=CC(=O)OCC(CO)(COC(=O)C=C)COC(=O)C=C [Pentaerythritol triacrylate],Luciferase IC50 (half-maximal inhibitory concentration),[1],Inactive
same,CYP1A2 Efficacy (in parenthesis),[2],71.58 ± 8.23 (-54 ± 11) %
same,CYP2C9 Efficacy (in parenthesis),[3],13.25 ± 1.87 (-108 ± 2) %
same,CYP2C19 Efficacy (in parenthesis),[4],22.64 ± 2.6 (-137 ± 14) %
same,CYP2D6 Efficacy (in parenthesis),[5],63.77 ± 20.97 (-79 ± 21) %
same,CYP3A4 Efficacy (in parenthesis),[6],0.93 ± 0.39 (-89 ± 6) %
same,IC50,[7],71.6 µM
same,IC50,[8]; [12],13.2 µM
same,IC50,[9],22.6 µM
same,IC50,[10]; [13],63.8 µM
same,IC50,[11],0.93 µM
COP(=S)(Oc1cc(Cl)c(Br)cc1Cl)c1ccccc1 (stereo not drawn) [Leptophos],Luciferase IC50 (half-maximal inhibitory concentration),[1],Inactive
same,CYP1A2 Efficacy (in parenthesis),[2],21.38 ± 6.3 (-109 ± 13) %
same,CYP2C9 Efficacy (in parenthesis),[3],0.98 ± 0.25 (-107 ± 5) %
same,CYP2C19 Efficacy (in parenthesis),[4],0.27 ± 0.05 (-122 ± 2) %
same,CYP2D6 Efficacy (in parenthesis),[5],89.36 ± 0 (-42 ± 11) %
same,CYP3A4 Efficacy (in parenthesis),[6],7.39 ± 0.5 (-65 ± 15) %
same,IC50,[7],21.4 µM
same,IC50,[8],0.98 µM
same,IC50,[9],0.27 µM
same,IC50,[10],89.4 µM
same,IC50,[11],7.39 µM
CCCC1COC(Cn2cncn2)(c2ccc(Cl)cc2Cl)O1 (stereo not drawn) [Propiconazole],Luciferase IC50 (half-maximal inhibitory concentration),[1],Inactive
same,CYP1A2 Efficacy (in parenthesis),[2],24.72 ± 6.17 (-104 ± 9) %
same,CYP2C9 Efficacy (in parenthesis),[3],2.18 ± 0.37 (-104 ± 6) %
same,CYP2C19 Efficacy (in parenthesis),[4],0.52 ± 0.14 (-134 ± 10) %
same,CYP2D6 Efficacy (in parenthesis),[5],37.02 ± 2.51 (-73 ± 5) %
same,CYP3A4 Efficacy (in parenthesis),[6],0.06 ± 0.02 (-71 ± 3) %
same,IC50,[7],24.7 µM
same,IC50,[8]; [12],2.18 µM
same,IC50,[9],0.52 µM
same,IC50,[10]; [13],37 µM
same,IC50,[11],0.06 µM
Clc1ccccc1-c1nc(-c2ccncc2)no1 [Pifexole],IC50,[1],3.23 µM
same,CYP1A2 Efficacy (in parenthesis),[2],0.39 ± 0.12 (-91 ± 4) %
same,CYP2C9 Efficacy (in parenthesis),[3],6.98 ± 3.95 (-79 ± 12) %
same,CYP2C19 Efficacy (in parenthesis),[4],0.74 ± 0.41 (-105 ± 12) %
same,CYP2D6 Efficacy (in parenthesis),[5],20.06 ± 9.42 (-76 ± 17) %
same,CYP3A4 Efficacy (in parenthesis),[6],33.57 ± 4.62 (-77 ± 10) %
same,IC50,[7],0.39 µM
same,IC50,[8]; [12],6.98 µM
same,IC50,[9],0.74 µM
same,IC50,[10]; [13],20.1 µM
same,IC50,[11],33.6 µM
C=CCOC(=O)C(C)(C)OC(=O)c1cc(-n2c(=O)cc(C(F)(F)F)n(C)c2=O)ccc1Cl [Butafenacil],Luciferase IC50 (half-maximal inhibitory concentration),[1],Inactive
same,CYP1A2 Efficacy (in parenthesis),[2],35.06 ± 4.03 (-48 ± 4) %
same,CYP2C9 Efficacy (in parenthesis),[3],23.68 ± 7.01 (-109 ± 17) %
same,CYP2C19 Efficacy (in parenthesis),[4],50.02 ± 19.28 (-89 ± 23) %
same,CYP2D6 Efficacy (in parenthesis),[5],26.96 ± 4.59 (-70 ± 7) %
same,CYP3A4 Efficacy (in parenthesis),[6],0.51 ± 0.14 (-90 ± 4) %
same,IC50,[7],35.1 µM
same,IC50,[8]; [12],23.7 µM
same,IC50,[9],50 µM
same,IC50,[10]; [13],27 µM
same,IC50,[11],0.51 µM
CCCCC(C#N)(Cn1cncn1)c1ccc(Cl)cc1 (stereo not drawn) [Myclobutanil],Luciferase IC50 (half-maximal inhibitory concentration),[1],Inactive
same,CYP1A2 Efficacy (in parenthesis),[2],33.28 ± 11.5 (-34 ± 3) %
same,CYP2C9 Efficacy (in parenthesis),[3],25.18 ± 0 (-109 ± 4) %
same,CYP2C19 Efficacy (in parenthesis),[4],0.66 ± 0.12 (-168 ± 41) %
same,CYP2D6 Efficacy (in parenthesis),[5],49.32 ± 12.32 (-38 ± 7) %
same,CYP3A4 Efficacy (in parenthesis),[6],0.17 ± 0.05 (-75 ± 2) %
same,IC50,[7],33.3 µM
same,IC50,[8]; [12],25.2 µM
same,IC50,[9],0.66 µM
same,IC50,[10]; [13],49.3 µM
same,IC50,[11],0.17 µM
N#Cc1c(Cl)c(Cl)c(Cl)c(C#N)c1Cl [Chlorothalonil],Luciferase IC50 (half-maximal inhibitory concentration),[1],Inactive
same,CYP1A2 Efficacy (in parenthesis),[2],1.03 ± 0.19 (-97 ± 4) %
same,CYP2C9 Efficacy (in parenthesis),[3],6.61 ± 1.87 (-85 ± 10) %
same,CYP2C19 Efficacy (in parenthesis),[4],38.42 ± 34.42 (-114 ± 10) %
same,CYP2D6 Efficacy (in parenthesis),[5],34.91 ± 0 (-58 ± 3) %
same,CYP3A4 Efficacy (in parenthesis),[6],1.11 ± 0.13 (-78 ± 2) %
same,IC50,[7],1.03 µM
same,IC50,[8]; [12],6.61 µM
same,IC50,[9],38.4 µM
same,IC50,[10]; [13],34.9 µM
same,IC50,[11],1.11 µM
